# Laboratory results taken from patent US20020156325A1, “Asymmetric beta-ketoiminate ligand compound, preparation method thereof, and organometal percursor comprising the same” (priority 2001, published 2002).
# Experiment: Thermal gravimetric analysis at atmospheric pressure
# Format: physicochemical
Substance,solid residue left after vaporization or decomposition,temperature at which the metal complex was vaporized or decomposed,residue left after vaporization or decomposition (in words) (at 290° C.)
Ti[CH3COCHCN(CH2CH2OH)2CH2CH3]2 [Example 6],about 12%,about 380 °C,–
Ti [CH3COCHCNH (CH2CH (CH3) OH) CH2CH3]2 [Example 4],–,290 °C,little residue
Ti[CH3COCHCNH(CH2CH2OH)CH2CH3]2 [Example 5],7%,about 330 °C,–
